Key:
[1] = target: Ag85A (Mycobacterium tuberculosis, UniProt P9WQP3); format: biochemical; settings: ratio of peak height of mono-hexanoyl ester of labelled/derivatised Tre to peak height of labelled/derivatised Tre; 500 μM di-hexanoyl ester, 500 μM substrate, 100 nM enzyme, 1 mM TEA pH 7.2, 37° C; compound 1 (Tre) = 100
[2] = target: Ag85B (Mycobacterium tuberculosis, UniProt P9WQP1); format: biochemical; settings: ratio of peak height of mono-hexanoyl ester of labelled/derivatised Tre to peak height of labelled/derivatised Tre; 500 μM di-hexanoyl ester, 500 μM substrate, 100 nM enzyme, 1 mM TEA pH 7.2, 37° C; compound 1 (Tre) = 100
[3] = target: Ag85C (Mycobacterium tuberculosis, UniProt P9WQN9); format: biochemical; settings: ratio of peak height of mono-hexanoyl ester of labelled/derivatised Tre to peak height of labelled/derivatised Tre; 500 μM di-hexanoyl ester, 500 μM substrate, 100 nM enzyme, 1 mM TEA pH 7.2, 37° C; compound 1 (Tre) = 100
[4] = test system: J774 Macrophages infected with H37Rv Mtb; experiment: FITC-Tre uptake into infected macrophages, confocal microscopy with anti-Mtb antibody; format: cell-based, murine; settings: FIG. 7(j); antibody labelled with Alexa-594
Experimental: J774 Macrophages were grown to confluency on coverslips and then were infected with H37Rv Mtb (2-3 bacteria/macrophage). After 4 hours infection time, macrophages were washed to remove free bacteria and FITC-Tre was added in ethanol to desired concentrations (1 μM, 10 μM, 50 μM, 100 μM). Quantum dots (QDs) were treated in an analogous fashion and were added to a concentration of dots of (7 nm) with roughly 110 sugars/dot (1 μM effective sugar concentration) Uncoated QDs were utilized as a control. RFP expressing BCG was also treated in an identical fashion.
Cells were fixed at different timepoints utilizing the following procedure: Media was removed and cells were washed in PBS Buffer. Cells were then fixed in an aqueous solution of 5% formalin is phosphate buffered saline (PBS) for 15 minutes and then washed again using two 2-minute treatments with PBS (0.5 ml) for 2 min. […]
Images of stained cells were obtained by confocal microscopy (Leica SP2, Leica Microsystems, Exton, Pa.) using a 63× oil immersion objective NA 1.4. Multiple fields were sampled, and representative images were recorded. […] DAPI was first excited at 405 nm and emission spectrum was recorded (416 nm-482 nm) before the other fluorochromes were excited and emission spectrums recorded. Essential Sequential Z sections of stained cells were also recorded for generation of stacked images through cell. […]

Chain of Ag85C (P9WQN9 46-340): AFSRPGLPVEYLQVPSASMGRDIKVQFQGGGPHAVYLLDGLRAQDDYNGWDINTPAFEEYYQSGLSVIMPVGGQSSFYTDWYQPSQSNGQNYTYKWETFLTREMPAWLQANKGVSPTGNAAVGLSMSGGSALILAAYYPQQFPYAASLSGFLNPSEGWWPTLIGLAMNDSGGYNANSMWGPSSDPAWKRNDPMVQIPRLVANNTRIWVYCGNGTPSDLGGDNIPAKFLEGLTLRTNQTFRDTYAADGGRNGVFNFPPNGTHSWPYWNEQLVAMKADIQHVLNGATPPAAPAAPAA
Chain of Ag85B (P9WQP1 41-325): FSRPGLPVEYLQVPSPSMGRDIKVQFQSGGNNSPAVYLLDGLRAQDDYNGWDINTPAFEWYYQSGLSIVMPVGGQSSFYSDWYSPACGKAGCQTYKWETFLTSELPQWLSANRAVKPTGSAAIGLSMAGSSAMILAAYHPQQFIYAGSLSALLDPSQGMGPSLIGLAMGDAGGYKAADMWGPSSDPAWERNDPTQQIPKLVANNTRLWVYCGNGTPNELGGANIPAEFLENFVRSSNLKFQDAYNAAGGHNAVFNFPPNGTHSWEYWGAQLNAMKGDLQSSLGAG
Chain of Ag85A (P9WQP3 44-338): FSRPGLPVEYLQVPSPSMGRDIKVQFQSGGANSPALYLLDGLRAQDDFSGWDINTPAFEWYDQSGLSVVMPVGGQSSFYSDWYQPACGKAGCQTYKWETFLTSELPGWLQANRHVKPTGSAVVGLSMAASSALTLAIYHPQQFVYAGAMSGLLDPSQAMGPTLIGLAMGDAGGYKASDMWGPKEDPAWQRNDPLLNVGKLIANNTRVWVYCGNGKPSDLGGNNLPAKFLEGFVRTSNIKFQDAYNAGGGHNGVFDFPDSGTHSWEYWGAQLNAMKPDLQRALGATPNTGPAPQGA

SMILES | Relative substrate response towards transesterification, Ag85A [1] | Relative substrate response towards transesterification, Ag85B [2] | Relative substrate response towards transesterification, Ag85C [3] | Colocalization of probe with anti-Mtb antibody signal in infected macrophages [4]
C[C@]1(O[C@H]2OC(CO)[C@@H](O)C(O)C2O)OC(CO)[C@@H](O)C(O)C1O (stereo partly drawn) [Compound 2, 1-Deoxy-α-D-gluco-hept-2-ulopyranosyl-(2→1)-α-D-glucopyranoside] | 32 | 13 | 111 | 
OCC1O[C@H](O[C@H]2OC(CO)[C@@H](O)C(O)C2I)C(I)C(O)[C@@H]1O (stereo partly drawn) [Compound 12, 2′-Deoxy-2′-iodo-α-D-mannopyranosyl-(1→1)-2-deoxy-2-iodo-α-D-mannopyranoside] | 148 | 54 | 166 | 
OCC1O[C@H](O[C@H]2OC(CBr)[C@@H](O)C(O)C2O)C(O)C(O)[C@@H]1O (stereo partly drawn) [Compound 19, 6-deoxy-6-bromo-α-D-glucopyranosyl-α-D-glucopyranoside] | 102 | 92 | 99 | 
C[C@]1(O[C@H]2OC(CO)[C@@H](O)C(O)C2F)OC(CO)[C@@H](O)C(O)C1O (stereo partly drawn) [Compound 3, 1-Deoxy-α-D-gluco-hept-2-ulopyranosyl-(2→1)-2-deoxy-2-fluoro-α-D-glucopyranoside] | 73 | 1415 | 102 | 
C[C@]1(O[C@H]2OC(CO)[C@@H](O)C(O)C2O)OC(CO)[C@H](O)C(O)C1O (stereo partly drawn) [Compound 4, 1-Deoxy-α-D-galacto-hept-2-ulopyranosyl-(2→1)-α-D-glucopyranoside] | 12 | 7 | 57 | 
OCC1O[C@H](O[C@H]2OC(CF)[C@@H](O)C(O)C2O)C(O)C(O)[C@@H]1O (stereo partly drawn) [Compound 20, 6-deoxy-6-fluoro-α-D-glucopyranosyl-α-D-glucopyranoside] | 149 | 412 | 91 | 
[N-]=[N+]=NCC1O[C@H](O[C@H]2OC(CO)[C@@H](O)C(O)C2O)C(O)C(O)[C@@H]1O (stereo partly drawn) [Compound 18, 6-Azido-D-trehalose] | 37 | 13 | 64 | 
C[C@]1(O[C@H]2OC(CO)[C@@H](O)C(O)C2NC(=S)Nc2ccc(-c3c4ccc(=O)cc-4oc4cc(O)ccc34)c(C(=O)O)c2)OC(CO)[C@@H](O)C(O)C1O (stereo partly drawn) [Compound 9, 1-Deoxy-α-D-gluco-hept-2-ulopyranosyl-(2→1)-2-N-fluorescein-2-deoxy-α-D-glucopyranoside] | 229 | 38 | 44 | colocalization of FITC-Tre and antibody
COP(=O)(O)OCC1O[C@H](O[C@H]2OC(CO)[C@@H](O)C(O)C2O)C(O)C(O)[C@@H]1O (stereo partly drawn) [Compound 16, 6-O-monomethoxyphosphoryl-D-trehalose] | 37 | 24 | 113 | 
OCC1O[C@H](O[C@@H]2OC(CO)[C@@H](O)C(O)C2F)C(F)C(O)[C@@H]1O (stereo partly drawn) [Compound 14, 2′-Deoxy-2′-fluoro-α-D-mannopyranosyl-(1→1)-2-deoxy-2-fluoro-β-D-mannopyranoside] | 7 | 35 | 82 | 
OCC1O[C@H](O[C@@H]2CC(O)[C@@H](O)C(CO)O2)CC(O)[C@H]1O (stereo partly drawn) [Compound 11, 2′-Deoxy-α-D-lyxo-hexopyranosyl-(1→1)-2-deoxy-α-D-lyxo-hexopyranoside] | 1 | 4 | 1 | 
OCC1O[C@H](O[C@@H]2CC(O)[C@H](O)C(CO)O2)CC(O)[C@@H]1O (stereo partly drawn) [Compound 10, 2′-Deoxy-α-D-arabino-hexopyranosyl-(1→1)-2-deoxy-α-D-arabino-hexopyranoside] | 50 | 16 | 129 | 
O=P1(O)OCC2O[C@H](O[C@H]3OC(CO)[C@@H](O)C(O)C3O)C(O)C(O)[C@@H]2O1 (stereo partly drawn) [Compound 17, 4,6-(monohydrogen)phosphoryl-D-trehalose] | 18 | 17 | 94 | 
OCC1O[C@H](O[C@H]2OC(CO)[C@@H](O)C(O)C2F)C(F)C(O)[C@@H]1O (stereo partly drawn) [Compound 13, 2′-Deoxy-2′-fluoro-α-D-mannopyranosyl-(1→1)-2-deoxy-2-fluoro-α-D-mannopyranoside] | 66 | 24 | 98 | 
C[C@]1(O[C@H]2OC(CO)[C@@H](O)C(O)C2N)OC(CO)[C@@H](O)C(O)C1O (stereo partly drawn) [Compound 7, 1-Deoxy-α-D-gluco-hept-2-ulopyranosyl-(2→1)-2-amino-2-deoxy-α-D-glucopyranoside] | 47 | 56 | 91 | 
OC[C@H]1O[C@H](O[C@H]2O[C@H](CO)[C@@H](O)[C@H](O)[C@H]2O)[C@H](O)[C@@H](O)[C@@H]1O [Compound 1, trehalose, reference compound] | 100 | 100 | 100 | 
C[C@]1(O[C@H]2OC(CO)[C@@H](O)C(O)C2F)OC(CO)[C@H](O)C(O)C1O (stereo partly drawn) [Compound 5, 1-Deoxy-α-D-galacto-hept-2-ulopyranosyl-(2→1)-2-deoxy-2-fluoro-α-D-glucopyranoside] | 19 | 13 | 64 | 
OC[C@H]1O[C@H](O[C@H]2O[C@H](CO)[C@H](F)[C@H](O)[C@H]2O)[C@H](O)[C@@H](O)[C@@H]1O [Compound 21, 4-deoxy-4-fluoro-α-D-galactopyranosyl α-D-glucopyranoside] | 229 | 412 | 91 | 
O=P(O)(O)OCC1O[C@H](O[C@H]2OC(CO)[C@@H](O)C(O)C2O)C(O)C(O)[C@@H]1O (stereo partly shown) [Compound 15, Trehalose-6-phosphate] | 6 | 4 | 28 | 
C[C@]1(O[C@H]2OC(CO)[C@@H](O)C(F)C2O)OC(CO)[C@@H](O)C(O)C1O (stereo partly drawn) [Compound 6, 1-Deoxy-α-D-gluco-hept-2-ulopyranosyl-(2→1)-3-fluoro-3-deoxy-α-D-glucopyranoside] | 7 | 8 | 76 | 
